The conditions of series [1]: animal models; cited from earlier work.
Series [2] is described as follows: Prodrug stability in rat plasma in vitro. In kind it is in vitro ADME. The following applies: 2.0 μM, 37° C.
Protocol: (§1) The stabilities of prodrugs were evaluated in one or more in vitro systems using a variety of tissue preparations following methods known in the art. The chemical stability of prodrugs in aqueous buffers at pH's of 2.0, 7.4 and 8.0 were also measured. […] Each preparation was incubated with test compound at 37° C. for one hour. Aliquots (50 μL) were removed at 0, 30, and 60 min and quenched with 0.1% trifluoroacetic acid in acetonitrile. Samples were then centrifuged and analyzed by LC/MS/MS (see Example 86 below for method details).
In a further series the test system is pancreatin. Kind of series: Pancreatin stability. Format: in vitro ADME, porcine. Particulars: 1% (w/v) pancreatin, 5 μM, pH 7.5, 37° C. The method, then:
Pancreatin Stability: Stability studies were conducted by incubating prodrug (5 μM) with 1% (w/v) pancreatin (Sigma, P-1625, from porcine pancreas) in 0.025 M Tris buffer containing 0.5 M NaCl (pH 7.5) at 37° C. for 60 min. The reaction was stopped by addition of 2 volumes of methanol. After centrifugation at 14,000 rpm for […], the supernatant was removed and analyzed by LC/MS/MS.

The nature of series [3]: Chemical stability of prodrugs in aqueous buffers. Format: physicochemical.
Protocol: as §1
A short description of series [4]: Prodrug stability in human liver S9. Format: in vitro ADME. Particulars: Human Liver S9 (0.5 mg/mL), 2.0 μM, NADPH, 37° C.
Protocol: as §1
Series [5] can be described thus: Caco-2 homogenate S9 stability. In kind it is in vitro ADME. Particulars: Caco-2 S9 (0.5 mg protein per mL), 5 μM, 37° C.
Protocol: Caco-2 Homogenate S9 Stability: Caco-2 cells were grown for 21 days prior to harvesting. Culture medium was removed and cell monolayers were rinsed and scraped off into ice-cold 10 mM sodium phosphate/0.15 M potassium chloride, pH 7.4. Cells were lysed by sonication at 4° C. using a probe sonicator. Lysed cells were then transferred into 1.5 mL centrifuge vials and centrifuged at 9000 g for 20 min at 4° C. The resulting supernatant (Caco-2 cell homogenate S9 fraction) was aliquoted into 0.5 mL vials and stored at −80° C. until used.
For stability studies, prodrug (5 μM) was incubated in Caco-2 homogenate S9 fraction (0.5 mg protein per mL) for 60 min at 37° C. Concentrations of intact prodrug and released baclofen were determined at zero time and 60 minutes using LC/MS/MS.
The nature of series [6]: Prodrug stability in human plasma in vitro. In kind it is in vitro ADME. The following applies: 2.0 μM, 37° C.
Protocol: as §1
The nature of series [7]: Prodrug stability in rat liver S9. Format: in vitro ADME. The following applies: Rat Liver S9 (0.5 mg/mL), 2.0 μM, NADPH, 37° C.
Protocol: as §1
Another series concerns Caco-2 cells. Kind of series: Caco-2 cellular permeability of prodrugs. In kind it is in vitro ADME. The following applies: Caco-2 monolayer, ratio of Papp values. (Passage across Caco-2 layers is used to estimate intestinal permeability.)

Protocol for Caco-2 cells: For example, cellular permeability may be evaluated by examining the flux of a prodrug across a cultured polarized cell monolayer (e.g., Caco-2 cells). Caco-2 cells obtained from continuous culture (passage less than 28) were seeded at high density onto Transwell polycarbonate filters. Cells were maintained with DMEM/10% fetal calf serum+0.1 mM nonessential amino acids+2 mM L-Gln, 5% CO2/95% O2, 37° C. until the day of the experiment. Permeability studies were conducted at pH 6.5 apically (in 50 mM MES buffer containing 1 mM CaCl2, 1 mM MgCl2, 150 mM NaCl, 3 mM KCl, 1 mM NaH2PO4, 5 mM glucose) and pH 7.4 basolaterally (in Hanks' balanced salt solution containing 10 mM HEPES) in the presence of efflux pump inhibitors (250 μM MK-571, 250 μM Verapamil, 1 mM Ofloxacin). Inserts were placed in 12 or 24 well plates containing buffer and incubated for 30 min at 37 C.°. Prodrug (200 μM) was added to the apical or basolateral compartment (donor) and concentrations of prodrug and/or released parent drug in the opposite compartment (receiver) were determined at intervals over 1 hour using LC/MS/MS. Values of apparent permeability (Papp) were calculated using the equation: Papp=Vr(dC/dt)//(ACo)
Here Vr is the volume of the receiver compartment in mL; dC/dt is the total flux of prodrug and parent drug (μM/s), determined from the slope of the plot of concentration in the receiver compartment versus time; Co is the initial concentration of prodrug in μM; A is the surface area of the membrane in cm^2.

With `NCC(CC(=O)O)c1ccc(Cl)cc1` (racemic) [Baclofen, (±)-4-Amino-3-(4-chlorophenyl)butanoic acid], in [1], the “absorption following administration into the colon” value was “poorly absorbed”.

`CC(=O)OC(C)OC(=O)NC[C@H](CC(=O)[O-])c1ccc(Cl)cc1.[Na+]` (stereo partly drawn) [(30), Sodium 4-[(1-Acetoxyethoxy)carbonylamino]-(3R)-(4-chlorophenyl)-butanoate]: the “% of Baclofen Released after 60 min” value turned out to be 42% in series [2]; 9% in the series on pancreatin; 0% in series [3] (aqueous buffer pH 2.0, 37° C.); 1% in [3] (aqueous buffer pH 7.4, 37° C.); 3% in series [3] (aqueous buffer pH 8.0, 37° C.); 87% in series [4]. Further, the “% of Baclofen Released after 60 min” value in series [5] turned out to be 70%; in [6], 8%; in series [7], 85%. The “% of Prodrug Remaining after 60 min” value came to 58% in series [2]; 100% in series [3] (aqueous buffer pH 2.0, 37° C.); 87% in [3] (aqueous buffer pH 7.4, 37° C.); 81% in [3] (aqueous buffer pH 8.0, 37° C.); 7% in [4]; 24% in [5]. For the same molecule, the “% of Prodrug Remaining after 60 min” value stood at 85% in series [6] and 1% in series [7]. Moreover, in the series with Caco-2 cells, the “Ratio A-B/B-A” value came to 3.8.

Source of the values: patent US10385014B2, “Acyloxyalkyl carbamate prodrugs, methods of synthesis and use” (ARBOR PHARMACEUTICALS, LLC, priority 2003, dated 2019).
